Data reported in patent US11352368B2, “Salt of fused ring pyrimidine compound, crystal form thereof and preparation method therefor and use thereof” (GUANGZHOU MAXINOVEL PHARMACEUTICALS CO., LTD., priority 2018, dated 2022).

Columns and labels:
[1] = target: T1, FLT3 (Homo sapiens, UniProt P36888); details: cited from earlier work
T1 sequence (P36888 27-993): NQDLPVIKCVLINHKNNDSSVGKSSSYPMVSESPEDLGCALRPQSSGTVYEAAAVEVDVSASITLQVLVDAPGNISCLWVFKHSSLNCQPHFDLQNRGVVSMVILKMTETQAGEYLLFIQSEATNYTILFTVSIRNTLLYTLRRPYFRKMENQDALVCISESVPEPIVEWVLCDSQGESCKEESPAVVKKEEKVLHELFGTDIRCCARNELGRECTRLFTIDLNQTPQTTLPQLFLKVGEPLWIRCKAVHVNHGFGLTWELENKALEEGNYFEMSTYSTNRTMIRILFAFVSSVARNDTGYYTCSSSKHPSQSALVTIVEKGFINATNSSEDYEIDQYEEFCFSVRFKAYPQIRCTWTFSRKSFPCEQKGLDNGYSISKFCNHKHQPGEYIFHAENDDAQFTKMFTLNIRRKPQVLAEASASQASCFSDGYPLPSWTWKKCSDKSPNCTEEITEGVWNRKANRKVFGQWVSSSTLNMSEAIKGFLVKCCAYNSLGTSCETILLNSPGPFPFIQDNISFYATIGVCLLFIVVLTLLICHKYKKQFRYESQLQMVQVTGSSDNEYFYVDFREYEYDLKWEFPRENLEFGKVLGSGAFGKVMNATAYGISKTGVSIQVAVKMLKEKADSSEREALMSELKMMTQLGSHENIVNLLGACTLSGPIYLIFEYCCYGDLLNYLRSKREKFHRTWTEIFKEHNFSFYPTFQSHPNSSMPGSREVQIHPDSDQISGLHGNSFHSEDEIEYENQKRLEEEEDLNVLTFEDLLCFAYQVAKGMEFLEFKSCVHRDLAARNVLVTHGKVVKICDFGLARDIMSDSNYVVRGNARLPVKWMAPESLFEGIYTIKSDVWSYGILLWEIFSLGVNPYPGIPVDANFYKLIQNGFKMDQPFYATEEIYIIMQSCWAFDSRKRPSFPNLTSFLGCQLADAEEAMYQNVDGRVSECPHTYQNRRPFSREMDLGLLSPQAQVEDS

[2] = Solubility test of the salts in pure water (Example 6); assay type: physicochemical; details: room temperature, balancing about 20 hours, HPLC
Method: 2.0 mg of sample was precisely weighed into a liquid phase vial, 1.0 mL of purified water was added, the vial was subjected to ultrasonic treatment for about 30 seconds to disperse the samples evenly, then the vial was placed on a Labquaker rotator, and slowly rotated at room temperature for balancing. After balancing for about 20 hours, each vial was removed, and the solution was filtered with 0.45 μm nylon filter membrane. The filtrate was diluted by DMSO or not diluted and then detected by HPLC. At the same time, two parts of fused ring pyrimidine compounds were weighed and dissolved in DMSO to make standard solutions with concentration of 250 μg/mL and 500 μg/mL, respectively. The standard solutions were subjected to the HPLC detection. The sample concentration vs the peak area of HPLC principal component was used for make a standard curve, and the solubility of each sample in pure water was calculated by a external standard method.

[3] = test system: JAK; details: cited from earlier work
[4] = Pharmacokinetic experiment, single intragastric dose in rats; assay type: in vivo, SD rats; details: single dose 10 mg/kg, 0.5% MC and 0.5% Tween80 in water
Method: 1) Preparation of animals 9 healthy male SD rats, each with a body weight of 220-230 g, were taken, fed with standard formulated granulated feed for rats at fixed times every day, and fasted for 12 hours before the experiment, and feeding was resumed after 4 hours of administration. Rats were free to drink water before, after and during the experiment. 9 rats were randomly divided into 3 groups.
2) Formulation of drugs: The fused ring pyrimidine compound as shown in formula 1, the crystal form A of the fumarate of fused ring pyrimidine compound as shown in formula 2 and the crystal form B of the adipate of fused ring pyrimidine compound as shown in formula 3 were accurately weighed, and were formulated into a 1 mg/mL solution in water (Wahaha/111830) with 0.5% MC (Fluka/BCBK3534K) and 0.5% Tween80 (TCl/V4FSC), respectively.
3) Intragastric administration with single dose (10 mg/kg): in the first group, rats were intragastrically administered with a solution of the fused ring pyrimidine compound as shown in formula 1, in the second group, rats were intragastrically administered with a solution of the crystal form A of the fumarate of fused ring pyrimidine compound as shown in formula 2, and in the third group, rats were intragastrically administered with a solution of the crystal form B of the adipate of fused ring pyrimidine compound as shown in formula 3.
4) Collection of blood samples: About 150 μL of blood was taken from the fundus venous plexus before administration and 0.083, 0.25, 0.5, 1, 2, 4, 8 and 24 hours after administration from each rat in the three groups, and anticoagulated with K2EDTA, plasma was separated by centrifugation and the supernatant was collected for LC-MS analysis.

[5] = test system: Src kinase; details: cited from earlier work
[6] = test system: FGFR; details: cited from earlier work
[7] = Solubility test of crystal form A and crystal form B in a medium (Example 12); assay type: physicochemical; details: for Solubility (calculated by free base of the fused ring pyrimidine compound): in mg/mL (unit assumed)
From the text: Example 12 Solubility Test of the Crystal Form A of the Fumarate of Fused Ring Pyrimidine Compound as Shown in Formula 2 and the Crystal Form B of the Adipate of Fused Ring Pyrimidine Compound as Shown in Formula 3 in a Medium

[8] = Stability test (total impurities, 20 days); assay type: physicochemical
Method: The crystal form A of the fumarate of fused ring pyrimidine compound as shown in formula 2, the crystal form B of the adipate of fused ring pyrimidine compound as shown in formula 3 and the fused ring pyrimidine compound as shown in formula 1 were subjected to tests at a high temperature of 60° C., 25° C./60% RH, 40° C./75% RH and highlight irradiation (4500 lx±500 lx), the test time was 20 days, the sample bottles were placed under different test conditions, and samples were taken at 0 and 20 days to detect the total amount of impurities, and the test results were shown in Table 8 below.

[9] = medium intestinal fluid in simulated fed state (FeSSIF)
[10] = medium pH 4 (50 mM phosphate buffer)
[11] = medium pH 6 (50 mM phosphate buffer)

saturated solubility [2]: <1 µg/mL
Blood drug concentration (AUC) [4]: 57.7 ng·h/mL
pH value of sample solution for solubility ([7]; medium Purified water): 8.29
Solubility (calculated by free base of the fused ring pyrimidine compound) ([7]; medium Purified water): <0.001
pH value of sample solution for solubility [7, 9]: 5.27
Solubility (calculated by free base of the fused ring pyrimidine compound) [7, 9]: 1.469
pH value of sample solution for solubility [7, 10]: 5.67
Solubility (calculated by free base of the fused ring pyrimidine compound) [7, 10]: 0.054
pH value of sample solution for solubility [7, 11]: 6.29
Solubility (calculated by free base of the fused ring pyrimidine compound) [7, 11]: 0.025
Impurity content ([8]; Day 0): 1.44%
Impurity content ([8]; Day 20, 25° C/60% RH): 1.46%
Impurity content ([8]; Day 20, 40° C/75% RH): 1.49%
Impurity content ([8]; Day 20, 60° C): 1.44%
Impurity content ([8]; Day 20, Light (4500 lx±500 lx)): 2.06%
chemical stability in the condition of high temperature and high humidity ([8]; high temperature and high humidity, 20 days): good chemical stability
SMILES: COc1cc(F)ccc1-c1c(C)sc2cnc(Nc3cnn(C4CCNCC4)c3)nc12 [The fused ring pyrimidine compound as shown in formula 1] [N-[7-(4-fluoro-2-methoxyphenyl)-6-methylthieno[3,2-d]pyrimidin-2-yl]-1-(piperidin-4-yl)-1H-pyrazol-4-amine]
inhibitory effect on FLT3 [1]: good inhibitory effect
inhibitory effect on JAK [3]: good inhibitory effect
inhibitory effect on Src kinase [5]: good inhibitory effect
inhibitory effect on FGFR [6]: good inhibitory effect
